In brackets after ≈: the same amount, converted by molar mass. A value given as a limit tells only on which side of the number the result lay.

By MIC is commonly meant the lowest concentration that inhibits growth of the organism. As usually defined, the inhibition is the relative decrease from the control value, in per cent. Usually MIC99 stands for an inhibitory concentration at the 99% level, which refers to growth in some studies and to a panel of isolates in others.

Data set [1] relates to Mycobacterium tuberculosis. In words: Antitubercular activity against Mycobacterium tuberculosis H37Rv MTCC 200 assessed as growth inhibition by BACTEC MGIT method. Type of data set: functional.
The subject of data set [2] is Mycobacterium tuberculosis. In words: Antitubercular activity against Mycobacterium tuberculosis H37Rv MTCC 200 assessed as growth inhibition at 6.25 ug/ml by BACTEC MGIT method. Type of data set: functional.
The next data set has as its system Plasmodium falciparum. In words: Antimalarial activity against chloroquine-sensitive Plasmodium falciparum 3D7 assessed as inhibition of complete maturation into schizonts after 40 hr. Type of data set: functional. As to conditions: 3D7, 40 h.
The subject of a further data set is Escherichia coli. In words: Antimicrobial activity against Escherichia coli MTCC 443 assessed as growth inhibition by broth microdilution method. Type of data set: functional. In general terms: Broth dilution looks for growth in wells or tubes with falling amounts of substance.
Data set [3] concerns Mycobacterium tuberculosis. In words: Antitubercular activity against Mycobacterium tuberculosis H37Rv MTCC 200 assessed as growth inhibition by L.J. MIC method. The format is functional.
The next data set relates to Vero. The data set can be described thus: Cytotoxicity against Chlorocebus aethiops (African green monkey) Vero cells assessed as inhibition of cell viability at equal to and greater than MIC for Mycobacterium tuberculosis H37Rv after 72 hr by MTT assay. Type of data set: cell-based. As to conditions: chlorocebus sabaeus. (In general: Tetrazolium assays rely on reduction of a dye to a coloured formazan, in cell work by metabolically active cells.)

The test system of another data set is Staphylococcus aureus. The data set can be described thus: Antimicrobial activity against Staphylococcus aureus MTCC 96 assessed as growth inhibition by broth microdilution method. Type of data set: functional.
The next data set has as its system Klebsiella pneumoniae. The data set can be described thus: Antimicrobial activity against Klebsiella pneumoniae MTCC 109 assessed as growth inhibition by broth microdilution method. The format is functional.
The test system of another data set is Candida albicans. The data set can be described thus: Antimicrobial activity against Candida albicans MTCC 227 assessed as growth inhibition by broth microdilution method. Type of data set: functional.
Data set [4] has as its system Mycobacterium tuberculosis. The data set can be described thus: Antitubercular activity against Mycobacterium tuberculosis H37Rv MTCC 200 assessed as growth inhibition at MIC by L.J. MIC method. The format is functional.
In the next data set the test system is Aspergillus niger. The data set can be described thus: Antimicrobial activity against Aspergillus niger MTCC 282 assessed as growth inhibition by broth microdilution method. Type of data set: functional.
The subject of a further data set is Pseudomonas aeruginosa. The data set can be described thus: Antimicrobial activity against Pseudomonas aeruginosa MTCC 1688 assessed as growth inhibition by broth microdilution method. Type of data set: functional.
Another data set deals with Bacillus subtilis. In words: Antimicrobial activity against Bacillus subtilis MTCC 441 assessed as growth inhibition by broth microdilution method. The format is functional.
The next data set relates to Streptococcus pyogenes. The data set can be described thus: Antimicrobial activity against Streptococcus pyogenes MTCC 442 assessed as growth inhibition by broth microdilution method. Type of data set: functional.
The test system of another data set is Aspergillus clavatus. In words: Antimicrobial activity against Aspergillus clavatus MTCC 1323 assessed as growth inhibition by broth microdilution method. The format is functional.

On to `CC[C@@H](CO)NCCN[C@@H](CC)CO` [ETHAMBUTOL], for which the MIC in [1] amounted to 3.12 µg/mL (≈ 15.3 µM). In addition, the inhibition at 6.25 µg/mL in data set [2] came to 99%.

As to `O=C1C(=O)N(CCCSC(=S)N2CCN(c3ccc(Cl)c(Cl)c3)CC2)c2ccc(Br)cc21`, the values for the MIC (in the data set with Plasmodium falciparum; in data set [3]; in [1]) were 0.25 µg/mL (≈ 0.436 µM), 100 µg/mL (≈ 174 µM) and 6.25 µg/mL (≈ 10.9 µM), respectively. Besides, the MIC99 in the data set on Escherichia coli was 200 µg/mL; with Staphylococcus aureus, 200 µg/mL; with Klebsiella pneumoniae it was 250 µg/mL; with Candida albicans it was 250 µg/mL; in the data set with Aspergillus niger, 100 µg/mL; with Pseudomonas aeruginosa it was 100 µg/mL. Further, the values for the MIC99 in the data set on Bacillus subtilis, in the data set with Streptococcus pyogenes and with Aspergillus clavatus were 250 µg/mL, 100 µg/mL and 500 µg/mL, respectively. In the data set with Vero, the Activity entry is reported as “Non-toxic”. For the same compound, in [4], the “inhibition (Growth inhibition)” value was 94%. For the same compound, the inhibition at 6.25 µg/mL in data set [2] was determined as 99%.

With `CC1(C)S[C@@H]2[C@H](NC(=O)[C@H](N)c3ccccc3)C(=O)N2[C@H]1C(=O)O` [AMPICILLIN], the MIC99 in the data set on Escherichia coli worked out at 100 µg/mL; in the data set on Staphylococcus aureus, 250 µg/mL; in the data set on Klebsiella pneumoniae, 100 µg/mL; in the data set on Pseudomonas aeruginosa, 100 µg/mL; in the data set on Bacillus subtilis it was 100 µg/mL; in the data set with Streptococcus pyogenes, 100 µg/mL.

On to `CCn1cc(C(=O)O)c(=O)c2cc(F)c(N3CCNCC3)cc21` [NORFLOXACIN], for which the MIC99 with Escherichia coli, in the data set on Staphylococcus aureus, in the data set on Klebsiella pneumoniae, with Pseudomonas aeruginosa, in the data set with Bacillus subtilis and with Streptococcus pyogenes was ≤ 10 µg/mL in each case.

Turning to `S=C(SSC(=S)N1CCN(c2ccc(Cl)c(Cl)c2)CC1)N1CCN(c2ccc(Cl)c(Cl)c2)CC1`, the MIC with Plasmodium falciparum came out at 0.25 µg/mL (≈ 0.408 µM); in data set [3] it was 6.25 µg/mL (≈ 10.2 µM); in [1], 6.25 µg/mL (≈ 10.2 µM). Moreover, the MIC99 in the data set with Escherichia coli worked out at 100 µg/mL; in the data set with Staphylococcus aureus it was 200 µg/mL; in the data set on Klebsiella pneumoniae, 62.5 µg/mL; in the data set with Candida albicans, 200 µg/mL; in the data set with Aspergillus niger it was 100 µg/mL; in the data set with Pseudomonas aeruginosa, 100 µg/mL. In addition, the MIC99 was 100 µg/mL with Bacillus subtilis, 62.5 µg/mL in the data set on Streptococcus pyogenes and 100 µg/mL in the data set with Aspergillus clavatus. The Activity result in the data set on Vero is reported as “Non-toxic”. The “inhibition (Growth inhibition)” value in data set [4] is on record as 98%. In addition, the inhibition at 6.25 µg/mL in data set [2] amounted to 99%.

Take `CO[C@H]1/C=C/O[C@@]2(C)Oc3c(C)c(O)c4c(O)c(c(/C=N/N5CCN(C)CC5)c(O)c4c3C2=O)NC(=O)/C(C)=C\C=C\[C@H](C)[C@H](O)[C@@H](C)[C@@H](O)[C@@H](C)[C@H](OC(C)=O)[C@@H]1C` [RIFAMPIN]: in [1], the MIC was determined as 0.25 µg/mL (≈ 0.304 µM). Besides, in data set [2], the inhibition at 6.25 µg/mL amounted to 99%.

Regarding `COC1=CC(=O)C[C@@H](C)[C@]12Oc1c(Cl)c(OC)cc(OC)c1C2=O` [GRISEOFULVIN], the results for the MIC99 in the data set on Candida albicans, in the data set on Aspergillus niger and with Aspergillus clavatus were 500 µg/mL, 100 µg/mL and 100 µg/mL, respectively.

Consider `CCN(CC)CCCC(C)Nc1ccnc2cc(Cl)ccc12` (configuration not stated) [CHLOROQUINE], for which the MIC with Plasmodium falciparum was found to be 0.125 µg/mL (≈ 0.391 µM).

With `O=C1C(=O)N(CCSC(=S)N2CCN(c3ccc(Cl)c(Cl)c3)CC2)c2ccc(Br)cc21`, the results for the minimal inhibitory concentration (MIC) (in the data set with Plasmodium falciparum; in [3]; in data set [1]) were 0.052 µg/mL (≈ 0.093 µM), 6.15 µg/mL (≈ 11 µM) and 6.25 µg/mL (≈ 11.2 µM), respectively. For the same compound, the MIC99 in the data set on Escherichia coli was 100 µg/mL; in the data set with Staphylococcus aureus it was 250 µg/mL; with Klebsiella pneumoniae it was 250 µg/mL; in the data set on Candida albicans it was 200 µg/mL; in the data set on Aspergillus niger it was 200 µg/mL; with Pseudomonas aeruginosa, 62.5 µg/mL. Also, the MIC99 in the data set with Bacillus subtilis amounted to 250 µg/mL; in the data set with Streptococcus pyogenes, 62.5 µg/mL; with Aspergillus clavatus, 500 µg/mL. For the same compound, in the data set with Vero, the Activity result was “Non-toxic”. In data set [4], the “inhibition (Growth inhibition)” value worked out at 99%. Further, the inhibition at 6.25 µg/mL in data set [2] is 99%.

For `O=C1C(=O)N(CCCSC(=S)N2CCN(c3ccc(Cl)c(Cl)c3)CC2)c2ccccc21`, the MIC was 0.089 µg/mL (≈ 0.18 µM) with Plasmodium falciparum, 200 µg/mL (≈ 404 µM) in [3] and > 6.25 µg/mL in data set [1]. The MIC99 is 500 µg/mL in the data set on Escherichia coli; 500 µg/mL with Staphylococcus aureus; 500 µg/mL in the data set with Klebsiella pneumoniae; > 1000 µg/mL in the data set on Candida albicans; 500 µg/mL in the data set with Aspergillus niger; 200 µg/mL with Pseudomonas aeruginosa. Further, the MIC99 is 100 µg/mL with Bacillus subtilis, 500 µg/mL in the data set on Streptococcus pyogenes and > 1000 µg/mL with Aspergillus clavatus. Also, the Activity result with Vero is given as “Non-toxic”. In addition, the “inhibition (Growth inhibition)” value in [4] is recorded as 97%. Besides, the inhibition at 6.25 µg/mL in [2] was determined as 96%.

For `O=C1C(=O)N(CCSC(=S)N2CCN(c3ccc(Cl)c(Cl)c3)CC2)c2ccc(Cl)cc21`, the MIC with Plasmodium falciparum was 0.061 µg/mL (≈ 0.118 µM); in data set [3], 100 µg/mL (≈ 194 µM); in data set [1], > 6.25 µg/mL. The MIC99 in the data set on Escherichia coli is 500 µg/mL; with Staphylococcus aureus it was 500 µg/mL; in the data set with Klebsiella pneumoniae, 250 µg/mL; in the data set on Candida albicans, > 1000 µg/mL; in the data set with Aspergillus niger it was > 1000 µg/mL; with Pseudomonas aeruginosa, 250 µg/mL. For the same compound, the MIC99 in the data set on Bacillus subtilis was 100 µg/mL; with Streptococcus pyogenes, 250 µg/mL; with Aspergillus clavatus, 500 µg/mL. The Activity result in the data set on Vero is “Non-toxic”. Further, the “inhibition (Growth inhibition)” value in data set [4] is given as 96%. Further, the inhibition at 6.25 µg/mL in data set [2] was found to be 98%.

In the case of NYSTATIN, the MIC99 in the data set on Candida albicans, with Aspergillus niger and in the data set on Aspergillus clavatus was 100 µg/mL throughout.

For `O=C1C(=O)N(CCCSC(=S)N2CCN(c3ccc(Cl)c(Cl)c3)CC2)c2ccc(Cl)cc21`, the values for the MIC (with Plasmodium falciparum; in [3]; in [1]) were 0.2 µg/mL (≈ 0.378 µM), 250 µg/mL (≈ 473 µM) and > 6.25 µg/mL, respectively. In addition, the MIC99 in the data set with Escherichia coli is 200 µg/mL; in the data set on Staphylococcus aureus it was 500 µg/mL; with Klebsiella pneumoniae, 500 µg/mL; with Candida albicans, 500 µg/mL; in the data set on Aspergillus niger, > 1000 µg/mL; in the data set with Pseudomonas aeruginosa, 250 µg/mL. Besides, the MIC99 is 500 µg/mL in the data set with Bacillus subtilis, 500 µg/mL in the data set with Streptococcus pyogenes and > 1000 µg/mL in the data set on Aspergillus clavatus. For the same compound, the Activity entry with Vero is “Non-toxic”. Moreover, in data set [4], the “inhibition (Growth inhibition)” value was determined as 92%. Besides, the inhibition at 6.25 µg/mL in data set [2] came out at 91%.

`O=C(O)c1cn(C2CC2)c2cc(N3CCNCC3)c(F)cc2c1=O` [CIPROFLOXACIN]: the MIC99 was ≤ 25 µg/mL with Escherichia coli; ≤ 25 µg/mL with Staphylococcus aureus; ≤ 25 µg/mL with Klebsiella pneumoniae; ≤ 25 µg/mL with Pseudomonas aeruginosa; ≤ 50 µg/mL in the data set with Bacillus subtilis; ≤ 50 µg/mL in the data set with Streptococcus pyogenes.

On to `O=C1C(=O)N(CCSC(=S)N2CCN(c3ccc(Cl)c(Cl)c3)CC2)c2ccc([N+](=O)[O-])cc21`, for which the MIC in the data set with Plasmodium falciparum came to 0.072 µg/mL (≈ 0.137 µM); in data set [3], 6.25 µg/mL (≈ 11.9 µM); in [1], 6.25 µg/mL (≈ 11.9 µM). Also, the MIC99 in the data set with Escherichia coli worked out at 100 µg/mL; with Staphylococcus aureus it was 62.5 µg/mL; with Klebsiella pneumoniae, 100 µg/mL; with Candida albicans it was 100 µg/mL; in the data set on Aspergillus niger it was 100 µg/mL; with Pseudomonas aeruginosa, 62.5 µg/mL. In addition, the MIC99 in the data set on Bacillus subtilis, in the data set with Streptococcus pyogenes and in the data set with Aspergillus clavatus was 100 µg/mL throughout. Moreover, the Activity result with Vero was “Non-toxic”. Also, the “inhibition (Growth inhibition)” value in data set [4] came out at 99%. Also, the inhibition at 6.25 µg/mL in data set [2] stood at 99%.

In the case of `NNC(=O)c1ccncc1` [ISONIAZID], the minimum inhibitory concentration (MIC) in data set [1] was determined as 0.2 µg/mL (≈ 1.46 µM).

As to `NC(=O)c1cnccn1` [PYRAZINAMIDE], the MIC in data set [1] was 6.25 µg/mL (≈ 50.8 µM). Also, the inhibition at 6.25 µg/mL in [2] was 99%.

(Values after ChEMBL document CHEMBL3044829, “New carbodithioate derivatives: synthesis, characterization, and in vitro antibacterial, antifungal, antitubercular, and antimalarial activity” (Med Chem Res, 2013).)
